Numbered stars: 1 amine (or outer) side, 2 acyl side, 3 side chain; on linkers, the order of the positions; unused ones are H or OH. Bridge positions count the residues as written; N and C are the ends. Square brackets hold non-standard residues; d marks the D form. Peptide text beside a SMILES is read from it. I, II: the chains in the order shown. 2Nal = N[C@@H](Cc1ccc2ccccc2c1)C(=O)O; Diglycolyl = O=C(COCC(=O)[*:2])[*:1]; NMeR = CN[C@@H](CCCNC(=N)N)C(=O)O; Pen = CC(C)(S)[C@H](N)C(=O)O
Key:
[1] = Dithiothreitol (DTT) Redox Stability Assay; type: physicochemical; settings: Table 4-C, t1/2, 0.5 mM DTT
Experimental: For each peptide tested, the DTT stability assay was conducted by adding 5 μl of a 10 mM peptide stock solution in DMSO to 1 ml of 100 mM Tris-Cl, pH 7.5 (final peptide concentration is 50 μM). At time 0 min, 5 ul of a freshly thawed 100 mM DTT solution was added to the incubation tube containing the peptide, such that the final DTT concentration was 0.5 mM. The reactions were incubated at room temperature. At different time points up to 120 minutes (20 min, 40 min, 80 min, 120 min), 50 ul aliquots were removed, and the reaction was quenched by adding 10 μl of 5M acetic acid. To measure disappearance of the parent peptide, the quenched samples (30 μl) were analyzed by reverse phase HPLC and UV absorbance at 220 nm. The fraction oxidized remaining was graphed versus time, and half-lives were calculated by fitting to a first-order exponential decay equation using Excel.

[2] = target: α4β1 (Homo sapiens, UniProt P05556+P13612); assay: α4β1-VCAM Cell Adhesion Assay (Jurkat E6.1 human cells); type: cell-based; set-up: host or cells: Jurkat E6.1 human T cells; settings: Table 4-B; read-out: Cell Adhesion α4β1 IC50
α4β1, sequence (P13612 34-1032): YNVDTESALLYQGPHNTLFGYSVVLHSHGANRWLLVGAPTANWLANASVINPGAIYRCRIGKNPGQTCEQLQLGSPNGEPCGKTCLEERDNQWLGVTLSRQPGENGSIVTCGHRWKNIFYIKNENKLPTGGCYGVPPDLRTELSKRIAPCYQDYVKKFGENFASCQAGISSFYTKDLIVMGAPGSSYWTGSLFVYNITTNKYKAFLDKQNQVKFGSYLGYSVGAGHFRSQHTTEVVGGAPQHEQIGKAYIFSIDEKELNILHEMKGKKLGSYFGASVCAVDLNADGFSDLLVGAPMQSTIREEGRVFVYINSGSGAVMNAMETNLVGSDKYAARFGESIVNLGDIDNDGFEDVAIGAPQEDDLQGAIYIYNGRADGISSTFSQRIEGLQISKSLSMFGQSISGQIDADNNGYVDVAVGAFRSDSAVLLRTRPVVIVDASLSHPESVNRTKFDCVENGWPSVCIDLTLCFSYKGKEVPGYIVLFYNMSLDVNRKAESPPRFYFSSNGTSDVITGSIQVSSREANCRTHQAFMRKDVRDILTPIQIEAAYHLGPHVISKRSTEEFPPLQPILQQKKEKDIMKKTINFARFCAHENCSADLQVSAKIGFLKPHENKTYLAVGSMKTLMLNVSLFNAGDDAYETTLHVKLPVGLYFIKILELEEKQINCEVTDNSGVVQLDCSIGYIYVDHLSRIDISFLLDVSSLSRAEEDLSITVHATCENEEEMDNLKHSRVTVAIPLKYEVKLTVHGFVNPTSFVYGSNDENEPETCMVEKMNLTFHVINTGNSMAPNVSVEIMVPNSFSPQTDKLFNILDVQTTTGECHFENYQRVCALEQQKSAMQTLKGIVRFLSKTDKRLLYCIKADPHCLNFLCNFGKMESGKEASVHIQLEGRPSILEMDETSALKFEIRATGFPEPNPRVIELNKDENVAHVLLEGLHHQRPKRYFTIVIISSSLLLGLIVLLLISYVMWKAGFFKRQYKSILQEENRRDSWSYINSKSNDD
α4β1, sequence (P05556 21-798): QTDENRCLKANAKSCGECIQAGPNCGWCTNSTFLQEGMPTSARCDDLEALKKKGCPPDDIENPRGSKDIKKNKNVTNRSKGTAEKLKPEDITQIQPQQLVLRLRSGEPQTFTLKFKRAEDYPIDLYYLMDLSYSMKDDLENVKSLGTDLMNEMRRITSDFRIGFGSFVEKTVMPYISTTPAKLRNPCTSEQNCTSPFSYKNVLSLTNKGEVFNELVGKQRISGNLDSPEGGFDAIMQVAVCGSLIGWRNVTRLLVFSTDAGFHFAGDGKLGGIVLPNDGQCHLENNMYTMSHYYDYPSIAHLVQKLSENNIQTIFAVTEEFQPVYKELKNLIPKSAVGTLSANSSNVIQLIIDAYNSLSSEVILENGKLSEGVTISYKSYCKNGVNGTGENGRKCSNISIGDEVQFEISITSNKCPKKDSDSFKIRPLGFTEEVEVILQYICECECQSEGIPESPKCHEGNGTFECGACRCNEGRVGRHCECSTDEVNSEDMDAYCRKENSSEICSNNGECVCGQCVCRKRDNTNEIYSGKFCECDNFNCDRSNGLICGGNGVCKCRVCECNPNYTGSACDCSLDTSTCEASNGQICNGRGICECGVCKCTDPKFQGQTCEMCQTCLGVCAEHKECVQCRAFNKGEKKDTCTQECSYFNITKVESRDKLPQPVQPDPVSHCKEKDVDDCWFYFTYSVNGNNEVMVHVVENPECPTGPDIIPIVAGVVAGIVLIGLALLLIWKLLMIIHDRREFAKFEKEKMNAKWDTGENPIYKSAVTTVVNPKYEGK
Experimental: Jurkat E6.1 human cells (Sigma #88042803) were cultured in RPMI 1640 HEPES medium (Invitrogen #22400-089) supplemented with 10% serum (Fetal Bovine Serum, Invitrogen #16140-071), 1 mM sodium pyruvate (Invitrogen #11360-070), 2 mM L-glutamine (Invitrogen #25030-081) and Penicillin-Streptomycin (Invitrogen #15140-122) at 100 units of penicillin and 100 μg of streptomycin per ml. The cells were washed two times in DMEM medium (ATCC #30-2002) supplemented with 0.1% BSA, 10 mM HEPES pH 7 and 1 mM MnCl2. The cells were re-suspended in supplemented DMEM medium at a density of 4×10^6 cells/ml.
A Nunc MaxiSorp plate was coated with rh VCAM-1/CD106 Fc chimera (R&D #862-VC) at 400 ng per well in 50 ul per well in 1×PBS and incubated at 4° C. overnight. The solution was then removed by shaking, blocked with 250 ul per well PBS containing 1% BSA, and incubated at 37° C. for 1 hr. The solution was removed by shaking. Peptides were diluted by serial dilution in a final volume of 50 ul per well (2× concentration). To each well, 50 ul of cells (200,000 cells) were added and the plate was incubated at 37° C., 5% CO2 for 30-45 min to allow cell adhesion. The wells were washed manually three times (100 ul per wash) with supplemented DMEM. After the final wash, 100 ul/well of supplemented DMEM and 10 ul/well of MTT reagent (ATTC cat#30-1010K) were added. The plate was incubated at 37° C., 5% CO2 for 2-3 hrs until a purple precipitate was visible. 100 ul of Detergent Reagent (ATTC cat#30-1010K) was added to each well. The plate was covered from the light, wrapped in Parafilm to prevent evaporation, and left overnight at room temperature in the dark. The plate was shaken for 5 min and the absorbance at 570 nm was measured. To calculate the dose response, the absorbance value of control wells not containing cells was subtracted from each test well.

[3] = Plasma Stability Assay; type: in vitro ADME; settings: rat, Table 4-C, t1/2
Experimental: 0.5 mL of rat plasma (one tube per peptide, volume depends on how many time points are to be collected, 50 μL per time point) was added to each well of a 96-well polypropylene plate, and the tubes were incubated in a heated water bath, preset to 37° C. with gentle shaking. 1 μL of 10 mM peptide stock solution was added to each tub, and then 200 μL of Acetonitrile w/0.1% Formic Acid was added to each tube (1:4). Samples were collected at the following time points: 0, 10, 30, 45, 60, 120, 180 mins. When all time points were collected, the plate was centrifuged at 5000 rpm for 5 mins. LCM analysis was performed by pipetting 100 μL of each sample to appropriate well of a 96-well deep plate. 100 μL of an internal standard peptide (1 ug/mL) was added in Mobile Phase A to each well. The plate was vortexed and injected

[4] = target: T1, α4β7 (Mus musculus, UniProt P26011+Q00651); assay: α4β7 Cell Adhesion Assay (Mouse), TK1 cells; type: cell-based; settings: Table 4-B; read-out: Cell Adhesion α4β7 Mouse IC50
T1 construct: host or cells: TK1 mouse T cells
T1 sequence (Q00651 34-1039 limits assumed): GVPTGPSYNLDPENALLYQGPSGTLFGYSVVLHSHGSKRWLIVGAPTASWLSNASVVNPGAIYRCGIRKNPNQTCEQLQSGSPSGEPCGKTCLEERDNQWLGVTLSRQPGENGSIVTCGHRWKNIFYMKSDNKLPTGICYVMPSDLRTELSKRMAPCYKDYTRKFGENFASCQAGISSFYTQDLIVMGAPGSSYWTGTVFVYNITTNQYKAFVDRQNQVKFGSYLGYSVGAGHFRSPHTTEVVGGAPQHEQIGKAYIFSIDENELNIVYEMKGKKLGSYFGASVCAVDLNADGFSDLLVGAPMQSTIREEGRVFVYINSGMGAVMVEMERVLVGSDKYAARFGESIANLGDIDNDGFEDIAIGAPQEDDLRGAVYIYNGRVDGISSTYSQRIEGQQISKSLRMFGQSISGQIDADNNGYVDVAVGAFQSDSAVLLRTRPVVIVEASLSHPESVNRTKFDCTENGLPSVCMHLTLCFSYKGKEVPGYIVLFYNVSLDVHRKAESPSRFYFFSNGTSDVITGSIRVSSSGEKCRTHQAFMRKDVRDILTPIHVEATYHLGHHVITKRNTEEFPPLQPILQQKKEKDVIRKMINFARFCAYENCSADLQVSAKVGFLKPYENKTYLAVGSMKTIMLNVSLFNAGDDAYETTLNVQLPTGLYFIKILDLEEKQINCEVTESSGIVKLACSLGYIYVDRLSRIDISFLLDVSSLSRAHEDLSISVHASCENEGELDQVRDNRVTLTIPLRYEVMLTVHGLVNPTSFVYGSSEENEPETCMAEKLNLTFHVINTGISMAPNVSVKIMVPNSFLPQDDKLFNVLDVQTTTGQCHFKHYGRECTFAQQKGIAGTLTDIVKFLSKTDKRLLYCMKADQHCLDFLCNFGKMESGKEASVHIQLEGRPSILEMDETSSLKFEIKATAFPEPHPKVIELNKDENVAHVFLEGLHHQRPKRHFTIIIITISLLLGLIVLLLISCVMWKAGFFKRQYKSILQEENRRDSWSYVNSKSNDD
T1 sequence (P26011 20-806): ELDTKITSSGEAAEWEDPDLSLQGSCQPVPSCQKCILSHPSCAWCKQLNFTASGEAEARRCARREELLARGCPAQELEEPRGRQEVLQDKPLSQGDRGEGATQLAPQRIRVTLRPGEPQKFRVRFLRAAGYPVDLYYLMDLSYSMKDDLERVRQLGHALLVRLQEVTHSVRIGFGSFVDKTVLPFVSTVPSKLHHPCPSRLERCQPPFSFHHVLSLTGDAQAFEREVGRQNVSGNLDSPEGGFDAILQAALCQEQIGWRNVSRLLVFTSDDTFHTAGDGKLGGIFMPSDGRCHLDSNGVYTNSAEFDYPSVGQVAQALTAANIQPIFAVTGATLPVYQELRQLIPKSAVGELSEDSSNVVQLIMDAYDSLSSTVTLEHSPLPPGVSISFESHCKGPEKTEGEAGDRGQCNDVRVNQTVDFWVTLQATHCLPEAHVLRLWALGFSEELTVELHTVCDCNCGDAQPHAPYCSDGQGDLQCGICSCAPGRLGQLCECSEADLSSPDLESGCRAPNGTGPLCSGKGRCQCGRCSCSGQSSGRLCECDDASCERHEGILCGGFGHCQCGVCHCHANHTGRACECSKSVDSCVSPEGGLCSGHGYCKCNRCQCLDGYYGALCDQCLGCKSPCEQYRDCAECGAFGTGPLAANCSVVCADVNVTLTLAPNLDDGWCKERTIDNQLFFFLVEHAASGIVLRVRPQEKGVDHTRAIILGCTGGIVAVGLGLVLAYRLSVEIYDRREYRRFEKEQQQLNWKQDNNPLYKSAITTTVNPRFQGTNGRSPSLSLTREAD
In short: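 Mouse TK1 cells in DMEM with 0.1% BSA, 10 mM HEPES pH 7 and 1 mM MnCl2 were allowed to adhere for 30-45 min at 37 °C to plates coated with recombinant human MAdCAM-1 Fc (200 ng/well) in the presence of serially diluted peptides. Adherent cells were quantified by MTT absorbance at 570 nm, with no-cell background subtracted for dose response.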

Structure (SMILES) | DTT Min [1] [min] | IC50 [2] [µM] | half-life at 20 μM [3] [h] | IC50 [4] [µM]
CC(=O)N[C@H]1CSSC[C@@H](C(=O)NCC(=O)N[C@@H](CCC(=O)O)C(N)=O)NC(=O)[C@H](CC(C)C)NC(=O)[C@H]([C@@H](C)O)NC(=O)[C@H](CC(=O)O)NC(=O)[C@H](CO)NC(=O)[C@H](CCCNC(=N)N)NC1=O [compound 194, Ac-C-R-S-D-T-L-C-G-E-NH2] (Ac-CRSDTLCGE-NH2; disulfide 1-7) | 5.5 |  |  | 
CC(=O)N[C@H]1CSSC[C@@H](C(N)=O)NC(=O)[C@H](CC(C)C)NC(=O)[C@H]([C@@H](C)O)NC(=O)[C@H](CC(=O)O)NC(=O)[C@H](CO)NC(=O)[C@H](CCCNC(=N)N)NC1=O [compound 195, Ac-C-R-S-D-T-L-C-NH2] (Ac-CRSDTLC-NH2; disulfide 1-7) | 4.7 |  |  | 
CC(=O)N[C@H]1CSSC[C@@H](C(=O)NCC(=O)N[C@@H](CCC(=O)O)C(N)=O)NC(=O)[C@H](CC(C)C)NC(=O)[C@H]([C@@H](C)O)NC(=O)[C@H](CC(=O)O)NC(=O)[C@H](CO)NC(=O)[C@H](CCCNC(=N)N)N(C)C1=O [compound 198, Ac-C-N-Me-R-S-D-T-L-C-G-E-NH2] (Ac-C[NMeR]SDTLCGE-NH2; disulfide 1-7) | 4.5 | > 100 |  | 
CC(=O)N[C@H]1CSSC[C@@H](C(=O)NCC(=O)N[C@@H](CCC(=O)O)C(=O)N[C@@H](CCCCN)C(=O)O)NC(=O)[C@H](CC(C)C)NC(=O)[C@H]([C@@H](C)O)NC(=O)[C@H](CC(=O)O)NC(=O)[C@H](CO)NC(=O)[C@H](CCCNC(=N)N)N(C)C1=O [compound 199, Ac-C-N-Me-R-S-D-T-L-C-G-E-K-OH] (Ac-C[NMeR]SDTLCGEK-OH; disulfide 1-7) |  |  | 1.35 | 
CC(=O)N[C@H]1CSSC[C@@H](C(=O)NCC(=O)N[C@@H](CCC(=O)O)C(=O)N[C@@H](CCCCNC(=O)COCC(=O)NCCCC[C@H](NC(=O)[C@H](CCC(=O)O)NC(=O)CNC(=O)[C@@H]2CSSC[C@H](NC(C)=O)C(=O)N(C)[C@@H](CCCNC(=N)N)C(=O)N[C@@H](CO)C(=O)N[C@@H](CC(=O)O)C(=O)N[C@@H]([C@@H](C)O)C(=O)N[C@@H](CC(C)C)C(=O)N2)C(=O)O)C(=O)O)NC(=O)[C@H](CC(C)C)NC(=O)[C@H]([C@@H](C)O)NC(=O)[C@H](CC(=O)O)NC(=O)[C@H](CO)NC(=O)[C@H](CCCNC(=N)N)N(C)C1=O [compound 201, (Ac-C-N-Me-R-S-D-T-L-C-G-E-K-OH)2-DIG] (I: Ac-C[NMeR]SDTLCGEK-OH / II: Ac-C[NMeR]SDTLCGEK-OH; disulfide I:1-I:7, II:1-II:7 (inferred); linker I:10-II:10 via Diglycolyl (inferred)) |  |  | 2.02 | 
CC(=O)N[C@@H]1C(=O)N[C@@H](CCCNC(=N)N)C(=O)N[C@@H](CO)C(=O)N[C@@H](CC(=O)O)C(=O)N[C@@H]([C@@H](C)O)C(=O)N[C@@H](CC(C)C)C(=O)N[C@H](C(=O)N[C@H](CCCCNC(=O)COCC(=O)NCCCC[C@@H](NC(=O)[C@@H]2CSSC(C)(C)[C@H](NC(C)=O)C(=O)N[C@@H](CCCNC(=N)N)C(=O)N[C@@H](CO)C(=O)N[C@@H](CC(=O)O)C(=O)N[C@@H]([C@@H](C)O)C(=O)N[C@@H](CC(C)C)C(=O)N2)C(N)=O)C(N)=O)CSSC1(C)C [compound 207, (Ac-Pen-R-S-D-T-L-C-k-NH2)2-DIG] (I: Ac-[Pen]RSDTLC[dK]-NH2 / II: Ac-[Pen]RSDTLC[dK]-NH2; disulfide I:1-I:7, II:1-II:7 (inferred); linker I:8-II:8 via Diglycolyl (inferred)) | 35 |  |  | 
CC(=O)N[C@@H]1C(=O)N(C)[C@@H](CCCNC(=N)N)C(=O)N[C@@H](CO)C(=O)N[C@@H](CC(=O)O)C(=O)N[C@@H]([C@@H](C)O)C(=O)N[C@@H](CC(C)C)C(=O)N[C@H](C(=O)N[C@@H](Cc2c[nH]c3ccccc23)C(=O)N[C@H](CCCCN)C(N)=O)C(C)(C)SSC1(C)C [compound 208, Ac-Pen-N-Me-R-S-D-T-L-Pen-W-k-NH2] (Ac-[Pen][NMeR]SDTL[Pen]W[dK]-NH2; disulfide 1-7) | >120 |  |  | 
CC(=O)N[C@@H]1C(=O)N(C)[C@@H](CCCNC(=N)N)C(=O)N[C@@H](CO)C(=O)N[C@@H](CC(=O)O)C(=O)N[C@@H]([C@@H](C)O)C(=O)N[C@@H](CC(C)C)C(=O)N[C@H](C(=O)N[C@@H](Cc2ccc3ccccc3c2)C(=O)N[C@@H](CCC(=O)O)C(=O)N[C@H](CCCCN)C(N)=O)C(C)(C)SSC1(C)C [compound 210, Ac-Pen-N-Me-R-S-D-T-L-Pen-2-Nal-E-k-NH2] (Ac-[Pen][NMeR]SDTL[Pen][2Nal]E[dK]-NH2; disulfide 1-7) | >120 | > 100 |  | 
CC(=O)N[C@@H]1C(=O)N(C)[C@@H](CCCNC(=N)N)C(=O)N[C@@H](CO)C(=O)N[C@@H](CC(=O)O)C(=O)N[C@@H]([C@@H](C)O)C(=O)N[C@@H](CC(C)C)C(=O)N[C@H](C(=O)N[C@@H](Cc2c[nH]c3ccccc23)C(=O)N[C@H](CCC(=O)O)C(=O)N[C@H](CCCCNC(=O)COCC(=O)NCCCC[C@@H](NC(=O)[C@@H](CCC(=O)O)NC(=O)[C@H](Cc2c[nH]c3ccccc23)NC(=O)[C@H]2NC(=O)[C@H](CC(C)C)NC(=O)[C@H]([C@@H](C)O)NC(=O)[C@H](CC(=O)O)NC(=O)[C@H](CO)NC(=O)[C@H](CCCNC(=N)N)N(C)C(=O)[C@@H](NC(C)=O)C(C)(C)SSC2(C)C)C(N)=O)C(N)=O)C(C)(C)SSC1(C)C [compound 211, (Ac-Pen-N-Me-R-S-D-T-L-Pen-W-e-k-NH2)2-DIG] (I: Ac-[Pen][NMeR]SDTL[Pen]W[dE][dK]-NH2 / II: Ac-[Pen][NMeR]SDTL[Pen]W[dE][dK]-NH2; disulfide I:1-I:7, II:1-II:7 (inferred); linker I:10-II:10 via Diglycolyl (inferred)) | >120 | > 100 |  | 0.0073
CC(=O)N[C@@H]1C(=O)N(C)[C@@H](CCCNC(=N)N)C(=O)N[C@@H](CO)C(=O)N[C@@H](CC(=O)O)C(=O)N[C@@H]([C@@H](C)O)C(=O)N[C@@H](CC(C)C)C(=O)N[C@H](C(=O)N[C@@H](Cc2ccc3ccccc3c2)C(=O)N[C@@H](CCC(=O)O)C(=O)N[C@H](CCCCNC(=O)COCC(=O)NCCCC[C@@H](NC(=O)[C@H](CCC(=O)O)NC(=O)[C@H](Cc2ccc3ccccc3c2)NC(=O)[C@H]2NC(=O)[C@H](CC(C)C)NC(=O)[C@H]([C@@H](C)O)NC(=O)[C@H](CC(=O)O)NC(=O)[C@H](CO)NC(=O)[C@H](CCCNC(=N)N)N(C)C(=O)[C@@H](NC(C)=O)C(C)(C)SSC2(C)C)C(N)=O)C(N)=O)C(C)(C)SSC1(C)C [compound 212, (Ac-Pen-N-Me-R-S-D-T-L-Pen-2-Nal-E-k-NH2)2-DIG] (I: Ac-[Pen][NMeR]SDTL[Pen][2Nal]E[dK]-NH2 / II: Ac-[Pen][NMeR]SDTL[Pen][2Nal]E[dK]-NH2; disulfide I:1-I:7, II:1-II:7 (inferred); linker I:10-II:10 via Diglycolyl (inferred)) | >120 | > 100 |  | 
